Experimental findings from patent US20230017045A1, “PYRIDINE AND PYRIMIDINE CARBOXYLATE HERBICIDES AND METHODS OF USE THEREOF” (Dow AgroSciences LLC, priority 2017, published 2023) are described below.

The assay concerns test plant species. Briefly: Post-emergent herbicidal activity test (greenhouse, foliar spray, visual growth reduction). The class given is in vivo. The note with it: post-emergence, 336 h, 140 g ai/ha. The method in brief:
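Visual scoring 14 d after treatment (0 = no injury, 100 = complete control) against nontreated and solvent-blank plants gave percent growth reduction. Foliar application used a track sprayer delivering 187 L/ha to seedlings at first or second true leaf stage, grown at 23–29 °C day, ~15 h photoperiod.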

Where [1] appears, read: ECHCG: barnyardgrass (Echinochloa crus-galli), 14 days after application, read-out: Visual Growth Reduction (%) 14 Days After Application, ECHCG.
Where [2] appears, read: IPOHE: ivy-leaf morning glory (Ipomoea hederacea), 14 days after application, read-out: Visual Growth Reduction (%) 14 Days After Application, IPOHE.
The mark [3] stands for this setting: KCHSC: kochia (Bassia scoparia), 14 days after application, read-out: Visual Growth Reduction (%) 14 Days After Application, KCHSC.
The mark [4] stands for this setting: ORYSA: rice (Oryza sativa), 14 days after application, read-out: Visual Growth Reduction (%) 14 Days After Application, ORYSA.
Where [5] appears, read: SETFA: giant foxtail (Setaria faberi), 14 days after application, read-out: Visual Growth Reduction (%) 14 Days After Application, SETFA.
Setting [6] is: SORVU: grain sorghum (Sorghum vulgare), 14 days after application, read-out: Visual Growth Reduction (%) 14 Days After Application, SORVU.
Where [7] appears, read: STEME: common chickweed (Stellaria media), 14 days after application, read-out: Visual Growth Reduction (%) 14 Days After Application, STEME.
Setting [8] is: TRZAS: wheat, spring (Triticum aestivum), 14 days after application, read-out: Visual Growth Reduction (%) 14 Days After Application, TRZAS.
The mark [9] stands for this setting: blackgrass (Alopecurus myosuroides), 14 Days After Application, read-out: Visual Growth Reduction (%) ALOMY.
[10] abbreviates: canada thistle (Cirsium arvense), 14 Days After Application, read-out: Visual Growth Reduction (%) CIRAR.
Setting [11] is: crabgrass (Digitaria sanguinalis), 14 Days After Application, read-out: Visual Growth Reduction (%) DIGSA.
[12] abbreviates: lambsquarters (Chenopodium album), 14 Days After Application, read-out: Visual Growth Reduction (%) CHEAL.
The mark [13] stands for this setting: redroot pigweed (Amaranthus retroflexus), 14 Days After Application, read-out: Visual Growth Reduction (%) AMARE.
[14] abbreviates: wild oat (Avena fatua), 14 Days After Application, read-out: Visual Growth Reduction (%) AVEFA.
Setting [15] is: yellow nutsedge (Cyperus esculentus), 14 Days After Application, read-out: Visual Growth Reduction (%) CYPES.

Like-named read-outs stand apart in the source and are kept apart here.

Turning to `COC(=O)c1nc(-c2cc(N)c(C(F)(F)F)cc2Cl)ccc1Cl` [F211, methyl 6-(5-amino-2-chloro-4-(trifluoromethyl)phenyl)-3-chloropicolinate], the pest or weed control at 140 g/ha is 60 to 74% under setting [1]; 95 to 100% under setting [2]; 75 to 84% under setting [3]; 0 to 29% under setting [4]; 45 to 59% under setting [5]; 60 to 74% under setting [6]. Moreover, the pest or weed control at 140 g/ha is, setting by setting: under setting [7], 0 to 29%; under setting [8], 0 to 29%; under setting [9], 0 to 29%; under setting [10], 85 to 94%; under setting [11], 30 to 44%; under setting [12], 95 to 100%. The pest or weed control at 140 g/ha by setting is: under setting [13], 85 to 94%; under setting [14], 0 to 29%; under setting [15], 0 to 29%.
In the case of `COC(=O)c1nc(-c2ccc(C(F)(F)F)c(N)c2Cl)ccc1Cl` [F212, Methyl 6-(3-amino-2-chloro-4-(trifluoromethyl)phenyl)-3-chloropicolinate], the pest or weed control at 140 g/ha by setting is: under setting [1], 75 to 84%; under setting [2], 95 to 100%; under setting [3], 60 to 74%; under setting [4], 0 to 29%; under setting [5], 60 to 74%; under setting [6], 60 to 74%. Moreover, the pest or weed control at 140 g/ha is, setting by setting: under setting [7], 0 to 29%; under setting [8], 0 to 29%; under setting [9], 0 to 29%; under setting [10], 85 to 94%; under setting [11], 30 to 44%; under setting [12], 95 to 100%. For the same compound, the pest or weed control at 140 g/ha is, setting by setting: under setting [13], 60 to 74%; under setting [14], 0 to 29%; under setting [15], 0 to 29%.
Consider `COC(=O)c1nc(-c2c(N)cc(C(F)(F)F)cc2Cl)ccc1Cl` [F213, Methyl 6-(2-amino-6-chloro-4-(trifluoromethyl)phenyl)-3-chloropicolinate], for which the pest or weed control at 140 g/ha under setting [1] lay in the range of 0 to 29%; the pest or weed control at 140 g/ha under setting [2] was 95 to 100%; the pest or weed control at 140 g/ha under setting [3] fell in the range of 60 to 74%; the pest or weed control at 140 g/ha under setting [4] was in the range of 0 to 29%; the pest or weed control at 140 g/ha under setting [5] fell in the range of 30 to 44%; the pest or weed control at 140 g/ha under setting [6] was 60 to 74%. Moreover, the pest or weed control at 140 g/ha was 0 to 29% under setting [7]; 0 to 29% under setting [8]; 0 to 29% under setting [9]; 0 to 29% under setting [10]; 30 to 44% under setting [11]; 85 to 94% under setting [12]. Besides, the pest or weed control at 140 g/ha was in the range of 45 to 59% under setting [13], 0 to 29% under setting [14] and 0 to 29% under setting [15].
As for `COC(=O)c1nc(-c2c(Cl)cc(C(F)(F)F)cc2I)ccc1Cl` [F214, methyl 3-chloro-6-(2-chloro-6-iodo-4-(trifluoromethyl)phenyl)picolinate], the pest or weed control at 140 g/ha reads like this: under setting [1], 0 to 29%; under setting [2], 95 to 100%; under setting [3], 75 to 84%; under setting [4], 0 to 29%; under setting [5], 75 to 84%; under setting [6], 85 to 94%. Moreover, the pest or weed control at 140 g/ha under setting [7] lay within 30 to 44%; the pest or weed control at 140 g/ha under setting [8] fell in the range of 75 to 84%; the pest or weed control at 140 g/ha under setting [9] lay in the range of 45 to 59%; the pest or weed control at 140 g/ha under setting [10] was 85 to 94%; the pest or weed control at 140 g/ha under setting [11] is 95 to 100%; the pest or weed control at 140 g/ha under setting [12] was 95 to 100%. For the same compound, the pest or weed control at 140 g/ha fell in the range of 75 to 84% under setting [13], 60 to 74% under setting [14] and 0 to 29% under setting [15].
Regarding `COC(=O)c1nc(-c2ccc(OC(F)(F)F)cc2OC)c(F)cc1Cl` [F215, Methyl 3-chloro-5-fluoro-6-(2-methoxy-4-(trifluoromethoxy)phenyl)picolinate], the pest or weed control at 140 g/ha lay in the range of 85 to 94% under setting [1]; 95 to 100% under setting [2]; 75 to 84% under setting [3]; 0 to 29% under setting [4]; 95 to 100% under setting [5]; 95 to 100% under setting [6]. Also, the pest or weed control at 140 g/ha is, setting by setting: under setting [7], 30 to 44%; under setting [8], 45 to 59%; under setting [9], 0 to 29%; under setting [10], 85 to 94%; under setting [11], 45 to 59%; under setting [12], 85 to 94%. For the same compound, the pest or weed control at 140 g/ha is, setting by setting: under setting [13], 85 to 94%; under setting [14], 60 to 74%; under setting [15], 0 to 29%.
Take `C=Cc1cc(C(F)(F)F)cc(Cl)c1-c1ccc(Cl)c(C(=O)OC)n1` [F216, methyl 3-chloro-6-(2-chloro-4-(trifluoromethyl)-6-vinylphenyl)picolinate]: the pest or weed control at 140 g/ha is, setting by setting: under setting [1], 0 to 29%; under setting [2], 95 to 100%; under setting [3], 30 to 44%; under setting [4], 0 to 29%; under setting [5], 60 to 74%; under setting [6], 60 to 74%. The pest or weed control at 140 g/ha lay in the range of 0 to 29% under setting [7]; 45 to 59% under setting [8]; 0 to 29% under setting [9]; 60 to 74% under setting [10]; 0 to 29% under setting [11]; 95 to 100% under setting [12]. In addition, the pest or weed control at 140 g/ha lay in the range of 30 to 44% under setting [13], 0 to 29% under setting [14] and 0 to 29% under setting [15].
For the compound `COC(=O)c1nc(-c2ccc(C(F)(F)F)c(N)c2)ccc1Cl` [F218, methyl 6-(3-amino-4-(trifluoromethyl)phenyl)-3-chloropicolinate], the pest or weed control at 140 g/ha runs as follows: under setting [1], 0 to 29%; under setting [2], 0 to 29%; under setting [3], 0 to 29%; under setting [4], 0 to 29%; under setting [5], 0 to 29%; under setting [6], 0 to 29%. Also, the pest or weed control at 140 g/ha lay in the range of 0 to 29% under setting [7]; 0 to 29% under setting [8]; 0 to 29% under setting [9]; 30 to 44% under setting [10]; 0 to 29% under setting [11]; 60 to 74% under setting [12]. Also, the pest or weed control at 140 g/ha reads like this: under setting [13], 0 to 29%; under setting [14], 0 to 29%; under setting [15], 0 to 29%.
Turning to `COC(=O)c1nc(-c2ccccc2)c(F)cc1Cl` [F219, Methyl 3-chloro-5-fluoro-6-phenylpicolinate], the pest or weed control at 140 g/ha reads like this: under setting [1], 0 to 29%; under setting [2], 45 to 59%; under setting [3], 0 to 29%; under setting [4], 0 to 29%; under setting [5], 0 to 29%; under setting [6], 60 to 74%. In addition, the pest or weed control at 140 g/ha runs as follows: under setting [7], 0 to 29%; under setting [8], 0 to 29%; under setting [9], 0 to 29%; under setting [10], 0 to 29%; under setting [11], 30 to 44%; under setting [12], 45 to 59%. Also, the pest or weed control at 140 g/ha under setting [13] was 0 to 29%, the pest or weed control at 140 g/ha under setting [14] lay within 0 to 29% and the pest or weed control at 140 g/ha under setting [15] was in the range of 0 to 29%.
